Laboratory results published in ChEMBL document CHEMBL1125986, “()-2-amino-2-thiazoline-4-ethanoic acid; a novel, specific GABAA receptor agonist” (Bioorg Med Chem Lett, 1991).

Assays:
Rattus norvegicus = species on record: Rattus norvegicus; experiment: Tested for inhibition of CA1 population spike in rat hippocampal slice by electrophysiological experiment; type: functional; settings: Hippocampus
[1] = biological target: GABA-A receptor; anion channel; experiment: Effective concentration for stimulation of [3H]diazepam binding to rat cortical membranes; type: functional, cell membranes, Membrane
[2] = biological target: GABA-A receptor; anion channel (Rattus norvegicus) (UniProt O09028+P15431+P18506+P18508+P19969+P20236+P23574+P23576+P28471+P28473+P30191+P62813+P63079+P63138+Q91ZM7+Q9ES14); experiment: Enhanced [3H]benzodiazepine binding in rat cortical membranes at 100 uM; type: cell membranes
[3] = biological target: GABA-A receptor; anion channel; experiment: Inhibition of [3H]-GABA binding to GABA-A receptor in rat cerebral cortex homogenates; type: tissue-based

Structure (SMILES)	EC50 (Rattus norvegicus)	EC50 [1]	Activity [2]	IC50 [3]
NC1=NC(CC(=O)O)CS1 (centres undefined)	28.3 µM	3.4 µM	142%	0.5 µM
O=C(O)C1=CCNCC1 [ISOGUVACINE]	13 µM	3.1 µM	156%	0.49 µM
Oc1noc2c1CCNC2 [GABOXADOL]	55 µM			
